Test results reported in the METLIN SMRT retention time set (Domingo-Almenara et al. 2019).

Assay: gradient 5% acetonitrile 3 min, to 50% in 2 min, to 85% in 15 min, held 3 min, 100 µL/min
Settings: column: Zorbax Extend-C18 2.1 x 50 mm; eluents: water / acetonitrile, 0.1% formic acid
How it was run: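 Values are retention times taken from adduct peaks that software picked and an analyst inspected. The pure standards were run as mixtures of ~100 molecules on HPLC linked to a quadrupole time-of-flight mass spectrometer, in positive and negative ionization mode. A Zorbax Extend-C18 column (2.1 × 50 mm, 1.8 μm) was used at 100 μL/min with water and acetonitrile, each including 0.1% formic acid.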

SMILES | RP-LC retention time [s]
Cn1c(C(=O)N2CCN(c3ccccn3)CC2)cc2cc(S(=O)(=O)N3CCCCC3)ccc21 | 699
CC(C)(C)C1CCc2c(sc3nc(CCC(=O)N4CCC(C(N)=O)CC4)[nH]c(=O)c23)C1 (centres undefined) | 779
CCC(=O)N1CCc2cc(N3CC(C(=O)Nc4ccc(C)cc4F)CC3=O)ccc21 (centres undefined) | 778
COc1ccc(Nc2ncc(C(=O)O)c3ccccc23)cc1 | 599
O=C(NCc1ccc(F)cc1)N1CCC(c2noc(-c3ccccn3)n2)C1 (centres undefined) | 813
Cc1ccc(C)c(NC(=O)C2CCN(S(=O)(=O)c3cc(-c4noc(C)n4)cs3)CC2)c1 | 953
COc1cc(NC(=O)NCCc2nc3cccnc3n2C2CCCCC2)cc(OC)c1 | 751
Cc1cccc(C(=O)Nc2nc(-c3ccc4c(c3)NC(=O)CO4)c(C)s2)c1 | 918
CCn1cnc(S(=O)(=O)N2CCCC(C(=O)N3CCN(c4ccccc4)CC3)C2)c1 (centres undefined) | 747
Cc1ccc(CNC(=O)c2cc3n(n2)CCCN(Cc2cccc(F)c2)C3=O)o1 | 853
CCc1cc(=O)n(CC(=O)NCc2ccc(Cl)cc2)c(N)n1 | 627
CN(C)C(=O)c1cc(=O)[nH]c2ccc(F)cc12 | 577
Cc1c(-c2noc(-c3cccc(F)c3)n2)nnn1Cc1ccccc1 | 1080
O=C(Nc1cccc(C(F)(F)F)c1)C1CCN(C(=O)C2Sc3ccccc3NC2=O)CC1 (centres undefined) | 862
Cn1nc(COc2ccccc2)c2c1CCN(C(=O)c1ccccn1)C2 | 687
CN(Cc1ccccc1)C(=O)c1cn(-c2cc(-c3nc(C(C)(C)C)no3)ccn2)cn1 | 1050
Cc1oc(C2CCN(S(=O)(=O)c3cccc(Cl)c3)CC2)nc1C(=O)N(C)C | 864
Cc1nnc(-c2cc(C)n(CC(=O)Nc3cccc(Cl)c3)c2C)o1 | 805
CN1C(=O)c2ccccc2C(C(=O)NCc2ccccn2)C1c1cccs1 (centres undefined) | 607
CCc1nnc(-c2cccnc2N2CCN(C(=O)Nc3cc(Cl)cc(Cl)c3)CC2)o1 | 968
Cc1cnn(Cc2nc(-c3ccc(NC(=O)C4CCCCC4)cc3)oc2C)c1 | 881
CC1=C(c2ccccc2)S(=O)(=O)N=C1N1CCCN(C(=O)c2ccc(Cl)cc2)CC1 | 863

SMILES | RP-LC retention time [s]
COc1ccc(-n2ccc(=O)c(-c3nc(-c4cccc(F)c4)no3)n2)cc1 | 868
C#CCOCC1CCN(C(=O)CC2CCCCC2)CC1 | 864
CN(CC(=O)Nc1nnc(SCc2ccc(Cl)cc2Cl)s1)S(C)(=O)=O | 874
CC(=O)c1cccc(NC(=O)C2CC(=O)N(c3ccc4c(c3)CCN4C(=O)C3CCC3)C2)c1 (centres undefined) | 760
Cc1cc2c(c(=O)n(-c3ccc(F)cc3)c(=O)n2CC(=O)N2CCCc3ccccc32)n1C | 893
O=C(Nc1cccc(F)c1)N1CCCC1c1nc(-c2cccc(F)c2)no1 (centres undefined) | 994
CCOc1ccc(C2Cn3nnc(-c4nc(-c5ccccc5OC)no4)c3CO2)cc1 (centres undefined) | 1090
c1ccc(-c2nc(-c3ccccn3)nc(-c3ccccn3)n2)nc1 | 644
Cc1ccc(-n2c(N3CCCC(C(=O)NCc4ccc(C)c(C)c4)C3)nc3ccsc3c2=O)cc1 (centres undefined) | 987
COc1ccc(NC(=O)c2cn3c(n2)CCCC3)c(OC)c1 | 610
CN1CCN(C(=O)c2nnc(-c3ccc(S(=O)(=O)N4CCCCC4)cc3)o2)CC1 | 654
O=C(C1CC1)N1c2ccccc2CC1c1nc(C2CC2)no1 (centres undefined) | 908
CCOc1ccc(C(=O)N2CCC3(CC2)NCc2ccccc2-n2ccnc23)cc1 | 619
COc1ccc(-c2nn(Cc3ccccc3F)c(=O)c3nc(C)sc23)cc1OC | 808
CC(=O)N1CCc2cc(N3CC(C(=O)Nc4ccc(F)c(Cl)c4)CC3=O)ccc21 (centres undefined) | 751
Cc1cc(N2CCN(C(=O)c3nccc4ccccc34)CC2)nc2nnc(C)n12 | 592
O=C(NCCCN1CCOC(c2ccccc2)C1)NC1CCCCC1 (centres undefined) | 584
O=C(NCc1ccc(F)cc1)[C@@H]1COCC(=O)N1Cc1ccc(F)cc1 | 791
CCOc1ccc(OCC)c(NS(=O)(=O)c2cc(-c3cc(CC)no3)cs2)c1 | 1090
COCc1cnc2c(c1SCc1ccccc1F)c(=O)n(C)c(=O)n2C | 899
CCc1ccc(NC(=O)C2(C)Oc3cccnc3NC2=O)cc1 (centres undefined) | 770
O=c1c2cc(-c3ccc(F)cc3)nn2cnn1Cc1nc(-c2ccc(Cl)c(F)c2)no1 | 1260
